# Columns and labels:
# Type in all cases: cell-based
# [1] = test system: WT-BaF3 cells; test: Cell antiproliferative activity assay (CCK-8), WT-BaF3 (broad-spectrum cytotoxicity); settings: 72 h; WT-BaF3 cells (IL-3 supplemented), CCK-8, 3 days incubation
# Procedure: The activity of compounds against BRK kinase can be evaluated by their inhibition of the growth of the BRK kinase-stably transfected BaF3 cell line (BRK-BaF3) and wild-type BaF3 cells (WT-BaF3). […] The larger the ratio of the half-maximal growth inhibitory concentration (IC50) of a compound between WT-BaF3 and BRK-BaF3 cells, the better the selectivity of the compound.
# (§1) BRK-BaF3, WT-BaF3, WEHI cell line, and breast cancer cell line T47D were cultured using RPMI 1640 Basal medium or DMEM (Dulbecco's Modified Eagle Medium) (Shanghai Peiyuan Biotechnology, L220KJ), supplemented with 10% FBS (Gibco, REF 10099-141C) and 1% P/S (Shanghai Peiyuan Biotechnology, S110JV), in an incubator (Thermo 3020) at 37°C with 5% CO2. Cell viability was above 95%. Cells were passaged at a 3:1 ratio every 3-4 days. For WT-BaF3 cells, WEHI cells were first cultured, and their culture supernatant was filtered through a 0.22 µm filter. This supernatant was added at 10% to the regular culture medium to supplement IL-3 required for WT-BaF3 cell proliferation, which served as the culture medium for WT-BaF3. For testing, cells were first collected and counted, then prepared into a cell suspension at 100,000 cells/mL and plated at 100 µL per well. Drug concentrations started from 10 µM and were serially diluted 3:1. After incubation for 3 days, 20 µL of CCK-8 detection reagent (Targetmol C005) was added to each well. After incubation for 2-4 hours, OD450 was measured using a microplate reader (Varioskan LUX, Thermo Scientific). After subtracting the blank background, the curve was fitted and the IC50 was calculated using XLfit software.
# [2] = test system: BRK-BaF3 cells; test: Cell antiproliferative activity assay (CCK-8), BRK-BaF3; settings: 72 h, CCK-8, 3 days incubation
# How it was run: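 Growth inhibition over 3 days, with compound serially diluted 3-fold from a 10 µM top concentration. Cells seeded at 100,000 cells/mL; WT-BaF3 medium carried 10% WEHI supernatant as the IL-3 source. Viability read by CCK-8 OD450 after 2-4 h; IC50 from blank-subtracted curve fit.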
# [3] = test system: T47D cells; test: Cell antiproliferative activity assay (CCK-8), T47D; settings: Homo sapiens, 72 h, breast cancer cell line T47D, incubation for 3 days
# Procedure: as §1
# In addition, the following table exemplarily lists the IC50 values of some compounds of the present invention against T47D cells.
SMILES,IC50 [2] [nM],IC50 [3] [nM],IC50 [1] [nM]
Cc1nn(CCCO)cc1Nc1ncc2cc(-c3cccnc3)cc(C(C)C)c2n1 [I-53],≤ 20,≤ 500,500 to 2500
Cc1ccncc1-c1cc(C(C)C)c2nc(Nc3cn(CC(C)(C)O)nc3C)ncc2c1 [I-56],≤ 20,≤ 500,500 to 2500
Cc1ccc(-c2cc(C(C)C)c3nc(Nc4cn(CCO)nc4C)ncc3c2)c(F)n1 [I-39],20 to 100,≤ 500,100 to 500
Cc1nn(CCO)cc1Nc1ncc2cc(-c3cccnc3C)cc(C(C)C)c2n1 [I-22],≤ 20,500 to 1000,500 to 2500
CC(C)c1cc(-c2cccnc2)cc2cnc(Nc3cn(CCO)nc3C(F)F)nc12 [I-54],≤ 20,500 to 1000,500 to 2500
Cc1ccncc1-c1cc(C(C)C)c2nc(Nc3cnn(CCO)c3C)ncc2c1 [I-59],≤ 20,≤ 500,> 2500
Cc1nn(CCO)cc1Nc1ncc2cc(-c3cnoc3C)cc(C(C)C)c2n1 [I-193],≤ 20,≤ 500,100 to 500
Cc1nccnc1-c1cc(C(C)C)c2nc(Nc3cnn(CCO)c3C)ncc2c1 [I-102],≤ 20,–,> 2500
Cc1nn(CCO)cc1Nc1ncc2cc(-c3ccccn3)cc(C(C)C)c2n1 [I-1],≤ 20,–,500 to 2500
Cc1nn(CCO)cc1Nc1ncc2cc(-c3cccnc3C3CC3)cc(C(C)C)c2n1 [I-28],20 to 100,–,500 to 2500
COc1ccncc1-c1cc(C(C)C)c2nc(Nc3cn(CCO)nc3C)ncc2c1 [I-33],≤ 20,–,> 2500
Cc1nn(CCO)cc1Nc1ncc2cc(-c3ccccn3)cc(C(F)(F)F)c2n1 [I-9],≤ 20,–,> 2500
Cc1nn(CCO)cc1Nc1ncc2cc(-c3nccnc3N)cc(C(C)C)c2n1 [I-84],≤ 20,–,> 2500
Cc1nn(CCO)cc1Nc1ncc2cc(-c3c(C)ncnc3C)cc(C(F)(F)F)c2n1 [I-150],≤ 20,–,> 2500
Cc1nn(CCO)cc1Nc1ncc2cc(-c3c(Cl)ccnc3Cl)cc(C(C)C)c2n1 [I-44],≤ 20,–,500 to 2500
Cc1nccnc1-c1cc(C(F)(F)F)c2nc(Nc3cnn(CCO)c3)ncc2c1 [I-110],≤ 20,–,> 2500

SMILES,IC50 [2] [nM],IC50 [3] [nM],IC50 [1] [nM]
Cc1nn(CCO)cc1Nc1ncc2cc(-c3cncc(N)n3)cc(C(C)C)c2n1 [I-93],20 to 100,–,> 2500
COc1nccnc1-c1cc(C(C)C)c2nc(Nc3cn(CCO)nc3C)ncc2c1 [I-82],20 to 100,–,500 to 2500
Cc1nn(CCO)cc1Nc1ncc2cc(-c3cccnc3C)cc(C(F)(F)F)c2n1 [I-76],≤ 20,–,> 2500
Cc1nn(CCCO)cc1Nc1ncc2cc(-c3nccnc3C)cc(C(C)C)c2n1 [I-100],≤ 20,–,500 to 2500
Cc1nn(CCO)cc1Nc1ncc2cc(-c3c(C)ncnc3Cl)cc(C(C)C)c2n1 [I-127],≤ 20,–,> 2500
Cc1nn(CCO)cc1Nc1ncc2cc(-c3nccnc3N)cc(C3CC3)c2n1 [I-105],≤ 20,–,500 to 2500
Cc1ncc(F)cc1-c1cc(C(C)C)c2nc(Nc3cnn(CCO)c3)ncc2c1 [I-52],≤ 20,–,> 2500
Cc1ccnnc1-c1cc(C(F)(F)F)c2nc(Nc3cn(CCO)nc3C)ncc2c1 [I-122],≤ 20,–,500 to 2500
Cc1nn(CCO)cc1Nc1ncc2cc(-c3c(Cl)ccnc3N)cc(C(C)C)c2n1 [I-49],≤ 20,–,> 2500
COc1ncccc1-c1cc(C(C)C)c2nc(Nc3cn(CCO)nc3C)ncc2c1 [I-25],≤ 20,–,> 2500
Cc1nn(CCO)cc1Nc1ncc2cc(-c3ncccc3F)cc(C(C)C)c2n1 [I-2],≤ 20,–,> 2500
Cc1nn(CCO)cc1Nc1ncc2cc(-c3nccnc3F)cc(C(C)C)c2n1 [I-79],≤ 20,–,500 to 2500
Cc1cccnc1-c1cc(C(C)C)c2nc(Nc3cn(CCO)nc3C)ncc2c1 [I-3],≤ 20,–,> 2500
Cc1ncnc(C)c1-c1cc(C(C)C)c2nc(Nc3cn(CCO)nc3C(F)F)ncc2c1 [I-141],20 to 100,–,> 2500
Cc1ccnc(C)c1-c1cc(C(C)C)c2nc(Nc3cn(CCO)nc3C)ncc2c1 [I-47],≤ 20,–,500 to 2500
COc1ncnc(C)c1-c1cc(C(C)C)c2nc(Nc3cn(CCO)nc3C)ncc2c1 [I-131],≤ 20,–,> 2500

# The next lines start with results.
IC50 [2] [nM],IC50 [3] [nM],SMILES,IC50 [1] [nM]
≤ 20,≤ 500,Cc1ccncc1-c1cc(C(C)C)c2nc(Nc3cn(C)nc3C)ncc2c1 [III-120],100 to 500
20 to 100,500 to 1000,Cc1nccnc1-c1cc(C(C)C)c2nc(Nc3ccc(P(C)(C)=O)cc3F)ncc2c1 [II-12],> 2500
≤ 20,≤ 500,Cc1c[nH]c(=O)cc1-c1cc(C(C)C)c2nc(Nc3cn(C)nc3C)ncc2c1 [III-2],> 2500
≤ 20,≤ 500,CCOc1cc(Nc2ncc3cc(-c4nccnc4C)cc(C4CC4)c3n2)ccc1P(C)(C)=O [II-72],500 to 2500
–,≤ 500,COc1cc(Nc2ncc3cc(-c4cccnc4)cc(C4CC4)c3n2)ccc1P(C)(C)=O [II-65],–
≤ 20,≤ 500,Cc1ccc(C#N)cc1-c1cc(C(C)C)c2nc(Nc3cn(C)nc3C)ncc2c1 [III-130],500 to 2500
≤ 20,≤ 500,COc1cc(Nc2ncc3cc(-c4nnccc4C)cc(C4CC4)c3n2)ccc1P(C)(C)=O [II-67],100 to 500
≤ 20,≤ 500,CCP(=O)(CC)c1ccc(Nc2ncc3cc(-c4nccnc4C)cc(C4CC4)c3n2)cc1OC [II-74],500 to 2500
≤ 20,500 to 1000,Cc1nn(C)cc1Nc1ncc2cc(-c3c[nH]nc3C)cc(C(C)C)c2n1 [III-88],500 to 2500
–,≤ 500,COc1cc(Nc2ncc3cc(-c4cnccc4C)cc(C4CC4)c3n2)ccc1P(C)(C)=O [II-66],–
≤ 20,–,Cc1nn(CC(N)=O)cc1Nc1ncc2cc(-c3cccnc3C)cc(C(C)C)c2n1 [III-128],> 2500
≤ 20,–,Cc1nn(CC(N)=O)cc1Nc1ncc2cc(-c3nccnc3C)cc(C3CC3)c2n1 [III-114],500 to 2500
20 to 100,–,Cc1cc(Nc2ncc3cc(-c4c(C)ncnc4C)cc(C(C)C)c3n2)c(F)cc1P(C)(C)=O [II-59],> 2500
≤ 20,–,Cc1nccnc1-c1cc(C(F)(F)F)c2nc(Nc3ccc(P(C)(C)=O)cc3)ncc2c1 [II-34],> 2500
20 to 100,–,Cc1cc(P(C)(C)=O)ncc1Nc1ncc2cc(-c3c(C)ncnc3C)cc(C(C)C)c2n1 [II-43],> 2500
≤ 20,–,Cc1c[nH]c(=O)cc1-c1cc(C2CC2)c2nc(Nc3cnn(C4COC4)c3C)ncc2c1 [III-83],> 2500
20 to 100,–,Cc1cc(P(C)(C)=O)ccc1Nc1ncc2cc(-c3nccnc3C)cc(C(C)C)c2n1 [II-13],> 2500
≤ 20,–,Cc1nccnc1-c1cc(C2CC2)c2nc(Nc3ccc(P(C)(C)=O)cc3)ncc2c1 [II-30],500 to 2500
20 to 100,–,COc1cc(P(C)(C)=O)ncc1Nc1ncc2cc(-c3c(C)ncnc3C)cc(C(C)C)c2n1 [II-44],> 2500
20 to 100,–,Cc1nccnc1-c1cc(C)c2nc(Nc3ccc(P(C)(C)=O)cc3)ncc2c1 [II-68],> 2500
20 to 100,–,Cc1nc(Nc2ncc3cc(-c4nccnc4C)cc(C(C)C)c3n2)ccc1P(C)(C)=O [II-10],> 2500
≤ 20,–,COc1cc(P(C)(C)=O)ccc1Nc1ncc2cc(-c3nccnc3C)cc(C(C)C)c2n1 [II-14],> 2500
≤ 20,–,Cc1ncnc(C)c1-c1cc(C(C)C)c2nc(Nc3ccc(P(C)(C)=O)c(C)c3F)ncc2c1 [II-56],> 2500
≤ 20,–,COc1cc(Nc2ncc3cc(-c4c(C)ncnc4C)cc(C(C)C)c3n2)ccc1P(C)(C)=O [II-54],> 2500
20 to 100,–,Cc1nccnc1-c1cc(C(F)(F)F)c2nc(Nc3ccc(P(C)(C)=O)cc3F)ncc2c1 [II-35],> 2500
≤ 20,–,Cc1cc(Nc2ncc3cc(-c4c(C)ncnc4C)cc(C(C)C)c3n2)cnc1P(C)(C)=O [II-45],> 2500
≤ 20,–,Cc1nccnc1-c1cc(C(C)C)c2nc(Nc3ccc(P(C)(C)=O)nc3)ncc2c1 [II-3],> 2500
≤ 20,–,COc1nc(P(C)(C)=O)ccc1Nc1ncc2cc(-c3nccnc3C)cc(C3CC3)c2n1 [II-32],500 to 2500

# Source: patent EP4803513A1, “SUBSTITUTED QUINAZOLINE COMPOUND, PREPARATION METHOD THEREFOR, PHARMACEUTICAL COMBINATION THEREOF, AND USE THEREOF” (Hongyun Biotech Co., Ltd., priority 2023, dated 2025)
